Laboratory results from ChEMBL document CHEMBL5034013, “Discovery of VNRX-7145 (VNRX-5236 Etzadroxil): An Orally Bioavailable β-Lactamase Inhibitor for Enterobacterales Expressing Ambler Class A, C, and D Enzymes” (J Med Chem, 2021).

Key:
[1] = Metabolic stability in Beagle dog liver S9 fraction assessed as half life at 3 uM measured after 2 hrs in absence of NADPH by UPLC-MS/MS analysis; assay type: ADME, subcellular, Canis lupus familiaris; settings: s9, 2 h
[2] = Drug metabolism in rat hepatocytes assessed as (R)-2-hydroxy-3-propionamido-3,4-dihydro-2H-benzo[e][1,2]oxaborinine-8-carboxylic acid formation at 2 to 20 uM incubated for 240 mins by UPLC-HR-MS/MS analysis; assay type: ADME, cell-based, Hepatocyte; settings: 4 h, dose 2-20 µM
[3] = Efflux ratio of apparent permeability from basolateral to apical side over apical to basolateral side in human Caco-2 cells at 5 uM measured after 2 hrs by LC-MS/MS method; assay type: ADME, cell-based; settings: caco-2, 2 h
[4] = Metabolic stability in Beagle dog intestinal S9 fraction assessed as half life at 3 uM measured after 2 hrs in absence of NADPH by UPLC-MS/MS analysis; assay type: ADME, subcellular, Canis lupus familiaris, Intestine; settings: s9, 2 h
[5] = Apparent permeability across apical to basolateral side in human Caco-2 cells at 5 uM measured after 2 hrs by LC-MS/MS method; assay type: ADME, cell-based; settings: caco-2, 2 h
[6] = Metabolic stability in CD-1 mouse intestinal S9 fraction assessed as half life measured at 3 uM after 2 hrs in absence of NADPH by UPLC-MS/MS analysis; assay type: ADME, subcellular, Intestine; settings: s9, 2 h
[7] = Metabolic stability in Cynomolgus monkey intestinal S9 fraction assessed as half life at 3 uM measured after 2 hrs in presence of NADPH by UPLC-MS/MS analysis; assay type: ADME, subcellular, Macaca fascicularis, Intestine; settings: s9, 2 h
[8] = Metabolic stability in Sprague-Dawley rat liver S9 fraction assessed as half life at 3 uM measured after 2 hrs in presence of NADPH by UPLC-MS/MS; assay type: ADME, subcellular; settings: s9, 2 h
[9] = Metabolic stability in CD-1 mouse liver S9 fraction assessed as half life measured at 3 uM after 2 hrs in presence of NADPH by UPLC-MS/MS analysis; assay type: ADME, subcellular; settings: s9, 2 h
[10] = Metabolic stability in Sprague-Dawley rat liver S9 fraction assessed as half life at 3 uM measured after 2 hrs in absence of NADPH by UPLC-MS/MS analysis; assay type: ADME, subcellular; settings: s9, 2 h
[11] = Apparent permeability across basolateral to apical side in human Caco-2 cells at 5 uM measured after 2 hrs by LC-MS/MS method; assay type: ADME, cell-based; settings: caco-2, 2 h
[12] = Drug metabolism in human hepatocytes assessed as (R)-2-hydroxy-3-propionamido-3,4-dihydro-2H-benzo[e][1,2]oxaborinine-8-carboxylic acid formation at 2 to 20 uM incubated for 240 mins by UPLC-HR-MS/MS analysis; assay type: ADME, cell-based, Hepatocyte; settings: 4 h, dose 2-20 µM
[13] = Metabolic stability in Beagle dog plasma assessed as half life at 3 uM measured after 2 hrs by UPLC-MS/MS analysis; assay type: ADME, cell-free, Canis lupus familiaris
[14] = Metabolic stability in Cynomolgus monkey intestinal S9 fraction assessed as half life at 3 uM measured after 2 hrs in absence of NADPH by UPLC-MS/MS analysis; assay type: ADME, subcellular, Macaca fascicularis, Intestine; settings: s9, 2 h
[15] = Metabolic stability in Cynomolgus monkey plasma assessed as half life at 3 uM measured after 2 hrs by UPLC-MS/MS analysis; assay type: ADME, cell-free, Macaca fascicularis
[16] = Metabolic stability in Beagle dog intestinal S9 fraction assessed as half life at 3 uM measured after 2 hrs in presence of NADPH by UPLC-MS/MS analysis; assay type: ADME, subcellular, Canis lupus familiaris, Intestine; settings: s9, 2 h
[17] = Metabolic stability in human intestinal S9 fraction assessed as half life at 3 uM measured after 2 hrs in absence of NADPH by UPLC-MS/MS analysis; assay type: ADME, subcellular, Intestine; settings: s9, 2 h
[18] = Metabolic stability in Cynomolgus monkey liver S9 fraction assessed as half life at 3 uM measured after 2 hrs in presence of NADPH by UPLC-MS/MS analysis; assay type: ADME, subcellular, Macaca fascicularis; settings: s9, 2 h
[19] = Metabolic stability in CD-1 mouse liver S9 fraction assessed as half life measured at 3 uM after 2 hrs in absence of NADPH by UPLC-MS/MS analysis; assay type: ADME, subcellular; settings: s9, 2 h
[20] = Metabolic stability in Sprague-Dawley rat intestinal S9 fraction assessed as half life at 3 uM measured after 2 hrs in absence of NADPH by UPLC-MS/MS analysis; assay type: ADME, subcellular, Intestine; settings: s9, 2 h
[21] = Metabolic stability in human intestinal S9 fraction assessed as half life at 3 uM measured after 2 hrs in presence of NADPH by UPLC-MS/MS analysis; assay type: ADME, subcellular, Intestine; settings: s9, 2 h
[22] = Drug metabolism in rabbit hepatocytes assessed as (R)-2-hydroxy-3-propionamido-3,4-dihydro-2H-benzo[e][1,2]oxaborinine-8-carboxylic acid formation at 2 to 20 uM incubated for 240 mins by UPLC-HR-MS/MS analysis; assay type: ADME, cell-based, Oryctolagus cuniculus, Hepatocyte; settings: 4 h, dose 2-20 µM
[23] = Metabolic stability in Cynomolgus monkey liver S9 fraction assessed as half life at 3 uM measured after 2 hrs in absence of NADPH by UPLC-MS/MS analysis; assay type: ADME, subcellular, Macaca fascicularis; settings: s9, 2 h
[24] = Metabolic stability in Beagle dog liver S9 fraction assessed as half life at 3 uM measured after 2 hrs in presence of NADPH by UPLC-MS/MS analysis; assay type: ADME, subcellular, Canis lupus familiaris; settings: s9, 2 h
[25] = Metabolic stability in CD-1 mouse plasma assessed as half life at 3 uM measured after 2 hrs by UPLC-MS/MS analysis; assay type: ADME, cell-free
[26] = Drug metabolism in Beagle dog hepatocytes assessed as (R)-2-hydroxy-3-propionamido-3,4-dihydro-2H-benzo[e][1,2]oxaborinine-8-carboxylic acid formation at 2 to 20 uM incubated for 240 mins by UPLC-HR-MS/MS analysis; assay type: ADME, cell-based, Canis lupus familiaris, Hepatocyte; settings: 4 h, dose 2-20 µM
[27] = Metabolic stability in Sprague-Dawley rat plasma assessed as half life at 3 uM measured after 2 hrs by UPLC-MS/MS analysis; assay type: ADME, cell-free
[28] = Metabolic stability in Sprague-Dawley rat intestinal S9 fraction assessed as half life at 3 uM measured after 2 hrs in presence of NADPH by UPLC-MS/MS analysis; assay type: ADME, subcellular, Intestine; settings: s9, 2 h
[29] = Drug metabolism in Cynomolgus monkey hepatocytes assessed as (R)-2-hydroxy-3-propionamido-3,4-dihydro-2H-benzo[e][1,2]oxaborinine-8-carboxylic acid formation at 2 to 20 uM incubated for 240 mins by UPLC-HR-MS/MS analysis; assay type: ADME, cell-based, Macaca fascicularis, Hepatocyte; settings: 4 h, dose 2-20 µM
[30] = Metabolic stability in human liver S9 fraction assessed as half life at 3 uM measured after 2 hrs in presence of NADPH by UPLC-MS/MS analysis; assay type: ADME, subcellular; settings: s9, 2 h
[31] = Metabolic stability in human plasma assessed as half life at 3 uM measured after 2 hrs by UPLC-MS/MS analysis; assay type: ADME, cell-free
[32] = Drug metabolism in mouse hepatocytes assessed as (R)-2-hydroxy-3-propionamido-3,4-dihydro-2H-benzo[e][1,2]oxaborinine-8-carboxylic acid formation at 2 to 20 uM incubated for 240 mins by UPLC-HR-MS/MS analysis; assay type: ADME, cell-based, Hepatocyte; settings: 4 h, dose 2-20 µM

t1/2 [1]: 0.7 min | Drug metabolism [2]: Metabolite_Detected | Ratio [3]: 3.2 | t1/2 [4]: 119 min | Papp [5]: 9.22 10^-6 cm/s | t1/2 [6]: 1.1 min | t1/2 [7]: 11.2 min | t1/2 [8]: 2.3 min | t1/2 [9]: 1.2 min | t1/2 [10]: 2.8 min | Papp [11]: 29.4 10^-6 cm/s | Drug metabolism [12]: Metabolite_Detected | t1/2 [13]: 43.9 min | t1/2 [14]: 10.1 min | t1/2 [15]: 22 min | t1/2 [16]: 49 min | t1/2 [17]: 3.3 min | t1/2 [18]: 0.8 min | t1/2 [19]: 1.3 min | t1/2 [20]: 4 min | t1/2 [21]: 2.9 min | Drug metabolism [22]: Metabolite_Detected | t1/2 [23]: 0.9 min | t1/2 [24]: 0.5 min | t1/2 [25]: 4.6 min | Drug metabolism [26]: Metabolite_Detected | t1/2 [27]: 1.6 min | t1/2 [28]: 3.9 min | Drug metabolism [29]: Metabolite_Detected | t1/2 [30]: 1 min | t1/2 [31]: 10.7 min | Drug metabolism [32]: Metabolite_Detected
Compound: CCC(=O)N[C@H]1Cc2cccc(C(=O)OCOC(=O)C(CC)CC)c2OB1O [LEDABORBACTAM ETZADROXIL]
